Entries after “also recorded” stand apart in the source; their conditions may differ.
Columns and labels:
CD31 = CD31 immunohistochemical staining of gastric tumor mass after local injection; settings: one week after injection
HUVECs [1] = experiment: LDH release assay in HUVECs; format: cell-based, human; settings: 1 mM, 5 mM and 10 mM 5-FU, P<0.05, FIG. 4
Protocol: To investigate whether the administration of 5-fluorouracil (5-FU) enhances apoptosis in endothelial cells, an LDH release assay was conducted in human umbilical vein endothelial cells (HUVECs). Cytotoxicity was assessed based on the amount of lactate dehydrogenase (LDH) released due to cell membrane damage. The released LDH was quantified using an LDH assay kit (EZ-LDH1000; DoGenBio, Seoul, Korea) according to the manufacturer's protocol.
HUVECs (5×10^4 cells/well) were seeded in a 96-well polystyrene plate and incubated at 37° C. for 24 hours. LDH substrate was added to each well, followed by an additional incubation at 37° C. for 10 minutes. The plate was centrifuged at 600 g for 5 minutes. A 10-μL aliquot of the supernatant was transferred from the culture plate wells to an analysis plate. Subsequently, 100 μL of LDH reaction mixture reagent was added to the supernatant in each well of the analysis plate. After a 30-minute reaction, absorbance was measured at 450 nm using a microplate reader (Model 680; Bio-Rad). The cytotoxicity of 5-FU on HUVECs was determined based on the amount of LDH released.

HUVECs [2] = experiment: MTS cell proliferation assay, 5-FU at different pH; format: cell-based, human; settings: 5 μM 5-FU, pH 6.4, 7.4, 8.4, 9.0, FIG. 5
Protocol: To evaluate the cytotoxic effect of 5-fluorouracil (5-FU) in human umbilical vein endothelial cells (HUVECs) under different pH conditions, an MTS cell proliferation assay was performed. The cytotoxicity of 5 μM 5-FU at various pH levels in HUVECs was assessed using the CellTiter 96 AQueous One Solution Cell Proliferation Assay (Promega Corp., Madison, WI, USA).
HUVECs were seeded in a 96-well plate at a density of 5×10^3 cells/well and incubated for 24 hours. Subsequently, the cells were cultured for an additional 24 hours in Dulbecco's Modified Eagle's Medium (DMEM) containing 5-FU at different pH conditions (pH 6.4, 7.4, 8.4, and 9.0). Following the incubation, the cells were washed twice with phosphate-buffered saline (PBS), after which 100 μL of fresh DMEM growth medium was added, followed by an additional 48-hour incubation. The medium was then replaced with 100 μL of fresh DMEM growth medium, and 20 μL of 3-(4,5-dimethylthiazol-2-yl)-5-(3-carboxymethoxyphenyl)-2-(4-sulfophenyl)-2H-tetrazolium (MTS) solution (Promega Corp., Madison, WI, USA) was added. After an additional 2-hour incubation, the absorbance was measured at 490 nm using a microplate reader (Model 680, BIO-RAD; Spark, TECAN, CA, USA).

VEGF = VEGF immunohistochemical staining of gastric tumor mass after local injection; settings: one week after injection
[3] = Pathological changes in subcutaneous muscle layer after injection (H&E); format: in vivo, nude mice; set-up: key: 0=absent; 1=mild; 2=moderate; 3=severe; settings: 5 mg pH 8.4 5-FU near the tumor; 24 hours; degeneration, necrosis, inflammation, fibrosis
Protocol: To observe pathological changes in the surrounding tissue after injecting 5 mg of pH 8.4 5-FU near the tumor, the drug was locally administered to nude mice. After 24 hours, tissues, including muscle layers, were collected and subjected to H&E staining to examine degeneration, necrosis, inflammation, and fibrosis in the muscle layer. The extent of each pathological change was scored as follows: 0=absent, 1=mild, 2=moderate, 3=severe, and the results are shown in FIG. 10A and FIG. 10B. FIG. 10A presents observations at 40× magnification, while FIG. 10B presents observations at 100× magnification.

TSP-1 protein = experiment: Western blot of TSP-1 protein expression in HUVEC; format: cell-based, human; settings: HUVECs; prolonged exposure and higher 5-FU concentrations; FIG. 3
Protocol: Western blot analysis was conducted to confirm the expression of TSP-1 protein in the HUVEC (human umbilical vein endothelial cell) cell line.
HUVECs cultured in petri dishes were lysed using a buffer containing 50 mM Tris (pH 8.0), 150 mM NaCl, 1% Nonidet P-40, 0.5% sodium deoxycholate (SDC), 0.1% sodium dodecyl sulfate (SDS), and 1× protease inhibitor cocktail. The lysates were incubated on ice for 30 minutes, followed by centrifugation at 14,000 g for 10 minutes to collect the supernatant.
Protein quantification was performed using a bicinchoninic acid (BCA) protein assay kit (Pierce Chemical, Rockford, IL, USA). A total of 30 μg of protein was subjected to electrophoresis on a 10% SDS-polyacrylamide gel and subsequently transferred onto a nitrocellulose membrane. The membrane was blocked with blocking milk for 1 hour, then incubated with the same TSP-1 antibody used for immunostaining at room temperature for 1 hour. After three washes with Tris buffer containing 0.1% Tween 20 at 15-minute intervals, the membrane was incubated with a secondary antibody specific to the primary antibody at room temperature for 1 hour. The detection was carried out using a chemiluminescent substrate (Amersham Life Science, Arlington Heights, IL, USA).
Protein extracted from HUVECs was used as a positive control.

HUVECs [4] = settings: various concentrations of L-NMMA, FIG. 11
Protocol: HUVECs were seeded at a density of 5×10^3 cells/well in a 96-well plate and incubated for 24 hours. Subsequently, the cells were incubated in DMEM medium containing various concentrations of L-NMMA for 24 hours. The cells were then washed twice with PBS, followed by the addition of 100 μL of fresh growth DMEM medium, and incubated for an additional 48 hours. The medium was replaced with 100 μL of fresh growth DMEM medium, after which 20 μL of 3-(4,5-dimethylthiazol-2-yl)-5-(3-carboxymethoxyphenyl)-2-(4-sulfophenyl)-2H-tetrazolium (MTS) was added. After an additional 2-hour incubation, absorbance at 490 nm was measured using a BIO-RAD Model 680 microplate reader (Spark, TECAN, CA, USA).

[5] = system: human gastric cancer cells; experiment: Human gastric cancer xenograft, alkaline 5-FU injected adjacent to tumor; format: in vivo, nude mice; settings: 5 mg 5-FU pH 8.4, adjacent to tumor, three times at one-week intervals; P<0.05
Protocol: The animals used in the experiment were six male nude mice (Crj: BALB/c-nu/nu mice, male) aged five weeks and weighing approximately 30 grams, purchased from Orient. The mice were subjected to a one-week acclimation period in the laboratory before use. Each nude mouse was subcutaneously xenografted with 5×10^6 human gastric cancer cells suspended in 100 μL of PBS on the dorsal subcutaneous layer. The tumor size was periodically measured, and when it reached a diameter of 1 cm, the drug administration experiment was conducted.
The experimental animals were divided into two groups. One group served as the control group, receiving only physiological saline, while the other group was administered 5 mg of 5-FU at pH 8.4. The drug was injected 0.2 cc adjacent to the tumor three times at one-week intervals. After one month, the major and minor axes of the tumors growing on the dorsal epidermis were measured.

[6] = system: human gastric cancer cells; experiment: Human gastric cancer xenograft, bevacizumab; format: in vivo, nude mice
Protocol: The animals used in the experiment were three male nude mice (Crj: BALB/c-nu/nu, male), each weighing approximately 30 g and five weeks old, produced by Orient. The mice underwent a one-week acclimatization period in the laboratory before use. Human gastric cancer cells (5×10^6 cells/100 μL in PBS) were xenografted into the subcutaneous fat layer on the dorsal side of each nude mouse. The tumor size was measured periodically, and drug administration was initiated when the tumor reached a diameter of 1 cm.
The experimental animals were administered 1 mg of bevacizumab by injecting 0.2 cc adjacent to the tumor three times at one-week intervals.

[7] = 5 mg 5-FU at base of tumor, relative to total tissue area

O=c1[nH]cc(F)c(=O)[nH]1 [5-FU, 5-fluorouracil]
Immunopositive area (CD31) (CD31; 5 mg 5-FU at base of tumor): 257079.525 μm^2 | Immuno-positive area (%) (CD31) (CD31; [7]): 0.54% | stained area (ratio) of CD31 compared to control group (CD31; 5 mg 5-FU): lower; also recorded: smaller | distribution of necrotic tissue compared to control group (CD31; 5 mg 5-FU, tumor mass): increased | amount of LDH released (HUVECs [1]): increased in a time-dependent manner | cytotoxic effect according to pH (HUVECs [2]): significantly greater toxicity under alkaline conditions compared to neutral or acidic 5-FU | Immunopositive area (VEGF) (VEGF; 5 mg 5-FU at base of tumor): 46077.917 μm^2 | Immuno-positive area (%) (VEGF) (VEGF; [7]): 0.10% | stained area of VEGF compared to control group (VEGF; 5 mg 5-FU): smaller | pathological changes in subcutaneous muscle layer at injection site (score) [3]: 0 | TSP-1 expression (TSP-1 protein): increased

CNC(=N)NCCC[C@H](N)C(=O)O [L-NMMA, NG-Monomethyl-L-arginine]
cell viability, L-NMMA alone (HUVECs [4]): reduction in cell viability

O=c1[nH]cc(F)c(=O)[nH]1 [alkaline 5-FU, 5-fluorouracil]
tumor size compared to control group that received PBS [5]: reduced | tumor size four weeks after drug administration compared to before injection [5]: decreased

bevacizumab: recombinant humanized monoclonal antibody designed to inhibit vascular endothelial growth factor (VEGF)
tumor size four weeks after drug administration compared to before injection ([6]; 1 mg bevacizumab adjacent to tumor, three times at one-week intervals, P>0.05): remained nearly unchanged | tumor size in later follow-up ([6]; 1 mg bevacizumab, months after the four-week reading): did not change for the following two months and began to increase in the third month

— patent publication US20260102400A1, “PHARMACEUTICAL COMPOSITION FOR DISRUPTING TUMOR BLOOD VESSELS” (SAMSUNG MEDICAL FOUNDATION, priority 2022, published 2026)
